Results published in patent publication US9073873B2, “2-heterocyclylaminoalkyl-(p-quinone) derivatives for treatment of oxidative stress diseases” (Edison Pharmaceuticals, Inc., priority 2008, dated 2015).

Legend:
Type in all cases: cell-based
[1] = test system: Human dermal fibroblasts from Friedreich's Ataxia patients; experiment: Rescue of BSO-stressed FRDA fibroblasts (Calcein AM viability); conditions: FRDA fibroblasts GM04078, BSO-stressed, read-out: protection against FRDA, EC50
Procedure: (§1) An initial screen was performed to identify compounds effective for the amelioration of redox disorders. Test samples, 4 reference compounds (idebenone, decylubiquinone, Trolox and α-tocopherol acetate), and solvent controls were tested for their ability to rescue FRDA fibroblasts stressed by addition of L-buthionine-(S,R)-sulfoximine (BSO), as described in Jauslin et al., Hum. Mol. Genet. 11(24):3055 (2002), Jauslin et al., FASEB J. 17:1972-4 (2003), and International Patent Application WO 2004/003565. […] This specific BSO-mediated cell death can be prevented by administration of antioxidants or molecules involved in the antioxidant pathway, such as α-tocopherol, selenium, or small molecule glutathione peroxidase mimetics. However, antioxidants differ in their potency, i.e. the concentration at which they are able to rescue BSO-stressed FRDA fibroblasts.
MEM (a medium enriched in amino acids and vitamins, catalog no. 1-31F24-I) and Medium 199 (M199, catalog no. 1-21F22-I) with Earle's Balanced Salts, without phenol red, were purchased from Bioconcept. Fetal Calf Serum was obtained from PAA Laboratories. Basic fibroblast growth factor and epidermal growth factor were purchased from PeproTech. Penicillin-streptomycin-glutamine mix, L-buthionine (S,R)-sulfoximine, (+)-α-tocopherol acetate, decylubiquinone, and insulin from bovine pancreas were purchased from Sigma. Trolox (6-Hydroxy-2,5,7,8-tetramethylchromane-2-carboxylic acid) was obtained from Fluka. Idebenone was obtained from Chemo Iberica. Calcein AM was purchased from Molecular Probes. Cell culture medium was made by combining 125 ml M199 EBS, 50 ml Fetal Calf Serum, 100 U/ml penicillin, 100 μg/ml streptomycin, 2 mM glutamine, 10 μg/ml insulin, 10 ng/ml EGF, and 10 ng/ml bFGF; MEM EBS was added to make the volume up to 500 ml. A 10 mM BSO solution was prepared by dissolving 444 mg BSO in 200 ml of medium (Invitrogen, Carlsbad, Ca.) with subsequent filter-sterilization. During the course of the experiments, this solution was stored at +4° C. The cells were obtained from the Coriell Cell Repositories (Camden, N.J.; repository number GM04078) and grown in 10 cm tissue culture plates. Every third day, they were split at a 1:3 ratio.
The test samples were supplied in 1.5 ml glass vials. The compounds were diluted with DMSO, ethanol or PBS to result in a 5 mM stock solution. Once dissolved, they were stored at −20° C. Reference antioxidants (idebenone, decylubiquinone, α-tocopherol acetate and Trolox) were dissolved in DMSO.
(§2) Test samples were screened according to the following protocol: A culture with FRDA fibroblasts was started from a 1 ml vial with approximately 500,000 cells stored in liquid nitrogen. Cells were propagated in 10 cm cell culture dishes by splitting every third day in a ratio of 1:3 until nine plates were available. Once confluent, fibroblasts were harvested. For 54 micro titer plates (96 well-MTP) a total of 14.3 million cells (passage eight) were re-suspended in 480 ml medium, corresponding to 100 μl medium with 3,000 cells/well. The remaining cells were distributed in 10 cm cell culture plates (500,000 cells/plate) for propagation. The plates were incubated overnight at 37° C. in a atmosphere with 95% humidity and 5% CO2 to allow attachment of the cells to the culture plate.
(§3) MTP medium (243 μl) was added to a well of the microtiter plate. The test compounds were unfrozen, and 7.5 μl of a 5 mM stock solution was dissolved in the well containing 243 μl medium, resulting in a 150 μM master solution. Serial dilutions from the master solution were made. The period between the single dilution steps was kept as short as possible (generally less than 1 second).
Plates were kept overnight in the cell culture incubator. The next day, 10 μl of a 10 mM BSO solution were added to the wells, resulting in a 1 mM final BSO concentration. […]

[2] = test system: human dermal fibroblasts from Huntington's patients; experiment: Rescue of fibroblasts from Huntington's patients from oxidative stress; conditions: Fibroblast, Huntington's cells GM 04281, read-out: protection against Huntington's, EC50
Procedure: as §1, §2, §3
(§4) Plates were kept overnight in the cell culture incubator. The next day, 10 μl of a 10 mM BSO solution were added to the wells, resulting in a 1 mM final BSO concentration. Forty-eight hours later, three plates were examined under a phase-contrast microscope to verify that the cells in the 0% control (wells E1-H1) were clearly dead. The medium from all plates was discarded, and the remaining liquid was removed by gently tapping the plate inversed onto a paper towel.
(§5) 100 μl of PBS containing 1.2 μM Calcein AM were then added to each well. The plates were incubated for 50-70 minutes at room temperature. After that time the PBS was discarded, the plate gently tapped on a paper towel and fluorescence (excitation/emission wavelengths of 485 nm and 525 nm, respectively) was read on a Gemini fluorescence reader. Data was imported into Microsoft Excel (EXCEL is a registered trademark of Microsoft Corporation for a spreadsheet program) and used to calculate the EC50 concentration for each compound.
(§6) Compounds of the invention were tested using a screen similar to the one described in Example A, but substituting FRDA cells with Huntington's cells obtained from the Coriell Cell Repositories (Camden, N.J.; repository number GM 04281). The compounds were tested for their ability to rescue human dermal fibroblasts from Huntington's patients from oxidative stress.

[3] = test system: human dermal fibroblasts from LHON patients; experiment: Rescue of fibroblasts from LHON patients from oxidative stress; conditions: Fibroblast, LHON cells GM03858, read-out: protection against LHON, EC50
Procedure: as §1, §2, §3, §4, §5
as §6, with “with Leber's Hereditary Optic Neuropathy (LHON)” for “with Huntington's”, “number GM03858).” for “number GM 04281).”, “from LHON” for “from Huntington's”

[4] = test system: human dermal fibroblasts from Parkinson's Disease patients; experiment: Rescue of fibroblasts from Parkinson's Disease patients from oxidative stress; conditions: Fibroblast, PD cells AG20439, read-out: protection against PD, EC50
Procedure: as §1, §2, §3, §4, §5
as §6, with “Example A […]” for “Example”, “with Parkinson's Disease (PD)” for “with Huntington's”, “number AG20439).” for “number GM 04281).”, “from Parkinson's Disease” for “from Huntington's”

[5] = test system: human dermal fibroblasts from CoQ10 deficient patients; experiment: Rescue of fibroblasts from CoQ10 deficient patients from oxidative stress; conditions: Fibroblast, cells from CoQ10 deficient patients harboring a CoQ2 mutation, read-out: protection against CoQ10 deficiency, EC50
Procedure: as §1, §2, §3, §4, §5
Compounds of the invention were tested using a screen similar to the one described in Example A, but substituting FRDA cells with cells obtained from CoQ10 deficient patients harboring a CoQ2 mutation. The compounds were tested for their ability to rescue human dermal fibroblasts from CoQ10 deficient patients from oxidative stress.

Measured: EC50

CC1=C(C)C(=O)C(CCNc2ncccc2C(F)(F)F)=C(C)C1=O [2,3,5-Trimethyl-6-(2-(3-(trifluoromethyl)pyridin-2-ylamino)ethyl)cyclohexa-2,5-diene-1,4-dione]
< 0.1 µM: [1] | [2] | [3] | [4] | [5]

CC1=C(C)C(=O)C(CCNc2nccc(F)n2)=C(C)C1=O [2-(2-(4-Fluoropyrimidin-2-ylamino)ethyl)-3,5,6-trimethylcyclohexa-2,5-diene-1,4-dione]
< 0.1 µM: [1] | [2] | [3] | [4] | [5]

CC1=C(C)C(=O)C(CCNc2ccc(C(F)(F)F)cn2)=C(C)C1=O [2,3,5-Trimethyl-6-(2-(5-(trifluoromethyl)pyridin-2-ylamino)ethyl)cyclohexa-2,5-diene-1,4-dione]
< 0.1 µM: [1] | [2] | [3] | [4] | [5]

CC1=C(C)C(=O)C(CCNc2ncccn2)=C(C)C1=O [2,3,5-Trimethyl-6-(2-(pyrimidin-2-ylamino)ethyl)cyclohexa-2,5-diene-1,4-dione]
< 0.1 µM: [1] | [2] | [3] | [4] | [5]

CC1=C(C)C(=O)C(CCNc2cc(C(F)(F)F)ccn2)=C(C)C1=O [2,3,5-Trimethyl-6-(2-(4-(trifluoromethyl)pyridin-2-ylamino)ethyl)cyclohexa-2,5-diene-1,4-dione]
< 0.1 µM: [1] | [2] | [3] | [4] | [5]

CC1=C(C)C(=O)C(CCNc2nccc(C(F)(F)F)n2)=C(C)C1=O [2,3,5-Trimethyl-6-(2-(4-(trifluoromethyl)pyrimidin-2-ylamino)ethyl)cyclohexa-2,5-diene-1,4-dione]
< 0.1 µM: [1] | [2] | [3] | [4] | [5]

CC1=C(C)C(=O)C(CCNc2cccc(C(F)(F)F)n2)=C(C)C1=O [2,3,5-Trimethyl-6-(2-(6-(trifluoromethyl)pyridin-2-ylamino)ethyl)cyclohexa-2,5-diene-1,4-dione]
< 0.1 µM: [1] | [2] | [3] | [4] | [5]

CC1=C(C)C(=O)C(CCNc2ncc(F)cn2)=C(C)C1=O [2-(2-(5-Fluoropyrimidin-2-ylamino)ethyl)-3,5,6-trimethylcyclohexa-2,5-diene-1,4-dione]
< 0.1 µM: [1] | [2] | [3] | [4] | [5]

CC1=C(C)C(=O)C(CCNc2ccccn2)=C(C)C1=O [2,3,5-Trimethyl-6-(2-(pyridin-2-ylamino)ethyl)cyclohexa-2,5-diene-1,4-dione]
< 0.1 µM: [1] | [2] | [3] | [4] | [5]
